# Measurements: US20220339227A1, “COMPOSITIONS OF CANNABINOIDS FOR DELIVERY BY INHALATION” (priority 2019, published 2022)
# Like-named read-outs stand apart in the source and are kept apart here.
# What was measured:
# [1] = Pharmacokinetic study in rats: dry powder insufflation of TFF-CBD and intravenous CBD solution; format: in vivo; conditions: plasma, intravenous solution 10 mg/kg, rat, read-out: Cannabidiol concentration in rat plasma, Intravenous
# Experimental: A dry powder formulation for inhalation containing 25% (w/w) of Cannabidiol (CBD) was developed using TFF technology, and a pharmacokinetic (PK) study in rats was performed using PennCentury™ DP4 dry powder Insufflator™ with a target delivered dose of 10 mg/kg CBD. […] For comparison and in contrast to the plasma levels of this TFF-CBD inhaled powder, in an inhaled CBD pharmacokinetic study in rats reported by Hložek et al. (2017) using CBD dissolved in a ethanolic solution and vaporized using heat, the inventors calculated based on information in this paper the administered amount of CBD as the delivered dose of 1.798 mg, or 7.98 mg/kg (calculated according Wang et al., 2014; DD=C×RMV×D, where DD is the delivered dose in mg, C is the concentration of drug powder in air in mg/L, RMV is the respiratory minute volume of a rat in L/min (RMV (L/min) for rats is calculated as =0.608×BW (kg)^0.852), and D is the exposure duration in min; based on 20 mg CBD nebulized into 9.5 L dosing chamber; a calculated RMV of 0.17 L/min, an average body weight of 225 g and exposure time of 5 min). […] There is a difference between this TFF-CBD inhaled powder that maintained relatively constant plasma levels over 8 hours compared to the rapid decline in serum levels of inhaled CBD ethanolic solution reported by Hložek et al. (2017). Possible explanations include that the TFF-CBD powder can better avoid lung clearance and that the TFF-CBD powder particles deposited in the lungs continue to dissolve and be absorbed from the lungs to plasma. (Beinborn et al., 2012; Wang et al., 2014; Carvalho et al., 2014). […] For comparison, based on CBD plasma levels of Huntington's disease patients, as reported by Consroe et al. (1991), the orally administered CBD dose of 10 mg/kg/day, which is the recommended maintenance dose of Epidiolex®, for 6 weeks by oral administration resulted a steady state CBD plasma level between 5.9 and 11.2 ng/mL.
# To study of plasma level with lower dose of the TFF-CBD powder by dry powder inhalation, another pharmacokinetic study in rats was performed using PennCentury™ DP4 dry powder Insufflator™ with a target delivered dose of 3 mg/kg and 1 mg/kg CBD. […] In other words, TFF-CBD dry powder inhalation was more efficient in delivering CBD than the vaporized CBD liquid. Therefore, delivery of TFF-CBD powder by dry powder inhalation requires a lower dose to reach the similar systemic levels of CBD as compared to vaporized CBD liquid by inhalation, thus showing TFF-CBD will present better efficacy at equivalent doses.
# [2] = Huntington's disease patients, oral 10 mg/kg/day for 6 weeks; cited from earlier work
# [3] = rat, 7.98 mg/kg, cited from earlier work; for CBD serum level: vaporized CBD, by four hours
structure (smiles),measurement,setting,value
C=C(C)[C@@H]1CCC(C)=C[C@H]1c1c(O)cc(CCCCC)cc1O [Cannabidiol],concentration at 0.083 h,"[1]; n=5, 0.083 h",4280 ± 891 ng/mL
same,concentration at 0.25 h,"[1]; n=5, 0.25 h",1770 ± 297 ng/mL
same,concentration at 0.5 h,"[1]; n=5, 0.5 h",1040 ± 217 ng/mL
same,concentration at 1 h,"[1]; n=5, 1 h",601 ± 193 ng/mL
same,concentration at 2 h,"[1]; n=5, 2 h",272 ± 112 ng/mL
same,concentration at 4 h,"[1]; n=5, 4 h",50 ± 23 ng/mL
same,concentration at 8 h,"[1]; n=5, 8 h",16.1 ± 11.3 ng/mL
same,effect of the dosing level in Huntington's disease,[2],neither symptomatically effective nor toxic
same,"CBD serum level, peak","[3]; vaporized CBD ethanolic solution, immediately after removal from inhalation dosing chamber",about 220 ng/mL
same,CBD serum level,[3]; listed as CBD,less than 20 ng/mL
same,CBD serum level,[3],below 20 ng/mL
